From article PMC10436550, “Subacute toxicity evaluations of LPM3480392 in rats, a full µ-opioid receptor biased agonist” (Frontiers in Pharmacology, 2023)

Tested on: Sprague Dawley (SD) rats
Test: Organ weight and ratios, 4-week subacute toxicity study
Format: in vivo, rat
Experimental: Complete gross necropsies were conducted on all surviving animals at the end of treatment (the day after the last dosing) and recovery periods. The following selected organs were weighed and evaluated in terms of organ/body or organ/brain weight ratios: brain, kidneys, adrenals, testes, ovaries, uterus, epididymides, thymus, spleen, heart and liver. Paired organs were weighed together. Organ-to-body weight ratio = Organ weight(g)/Body weight(g) × 100%, and Organ-to-brain weight ratio = Organ weight(g)/Brain weight(g) × 100%.

[1] = female rats, 0.6 mg/kg/day, End of dosing phase
[2] = female rats, 0.6 mg/kg/day, End of recovery phase
[3] = female rats, 1.2 mg/kg/day, End of dosing phase
[4] = female rats, 1.2 mg/kg/day, End of recovery phase
[5] = female rats, 2.4 mg/kg/day, End of dosing phase
[6] = female rats, 2.4 mg/kg/day, End of recovery phase
[7] = male rats, 0.6 mg/kg/day, End of dosing phase
[8] = male rats, 0.6 mg/kg/day, End of recovery phase

Fc1ccc([C@]2(CCNCc3cccc(Cl)c3)CCO[C@]3(CCOC3)C2)nc1 [LPM3480392]
Organ weight, Brain [1]: 1.862 ± 0.102 g
Organ weight, Kidney [1]: 1.501 ± 0.123 g
Organ weight, Spleen [1]: 0.646 ± 0.159 g
Organ weight, Thymus [1]: 0.402 ± 0.053 g
Organ-to-body weight ratio, Brain [1]: 0.875 ± 0.063 %
Organ-to-body weight ratio, Kidney [1]: 0.704 ± 0.037%
Organ-to-body weight ratio, Spleen [1]: 0.301 ± 0.065%
Organ-to-body weight ratio, Thymus [1]: 0.189 ± 0.028%
Organ-to-brain weight ratio, Adrenal gland [1]: 3.21 ± 0.59%
Organ-to-brain weight ratio, Kidney [1]: 80.71 ± 6.29%
Organ-to-brain weight ratio, Spleen [1]: 34.73 ± 8.54%
Organ-to-brain weight ratio, Thymus [1]: 21.61 ± 3.02%
Terminal BW [1]: 213.5 ± 15.3 g
Organ weight, Brain [2]: 2.018 ± 0.046 g
Organ weight, Kidney [2]: 1.626 ± 0.142 g
Organ weight, Spleen [2]: 0.530 ± 0.085 g
Organ weight, Thymus [2]: 0.308 ± 0.055 g
Organ-to-body weight ratio, Brain [2]: 0.804 ± 0.031%
Organ-to-body weight ratio, Kidney [2]: 0.647 ± 0.043%
Organ-to-body weight ratio, Spleen [2]: 0.210 ± 0.030%
Organ-to-body weight ratio, Thymus [2]: 0.122 ± 0.019%
Organ-to-brain weight ratio, Adrenal gland [2]: 2.91 ± 0.20%
Organ-to-brain weight ratio, Kidney [2]: 80.51 ± 6.21%
Organ-to-brain weight ratio, Spleen [2]: 26.23 ± 4.03%
Organ-to-brain weight ratio, Thymus [2]: 15.21 ± 2.43%
Terminal BW [2]: 251.2 ± 9.7 g
Organ weight, Brain [3]: 1.916 ± 0.096 g
Organ weight, Kidney [3]: 1.518 ± 0.127 g
Organ weight, Spleen [3]: 0.637 ± 0.078 g
Organ weight, Thymus [3]: 0.380 ± 0.046 g
Organ-to-body weight ratio, Brain [3]: 0.881 ± 0.039 %
Organ-to-body weight ratio, Kidney [3]: 0.697 ± 0.044%
Organ-to-body weight ratio, Spleen [3]: 0.294 ± 0.042%
Organ-to-body weight ratio, Thymus [3]: 0.175 ± 0.026%
Organ-to-brain weight ratio, Adrenal gland [3]: 2.89 ± 0.37%
Organ-to-brain weight ratio, Kidney [3]: 79.14 ± 3.61%
Organ-to-brain weight ratio, Spleen [3]: 33.29 ± 3.96%
Organ-to-brain weight ratio, Thymus [3]: 19.90 ± 2.88%
Terminal BW [3]: 217.8 ± 15.0 g
Organ weight, Brain [4]: 1.990 ± 0.086 g
Organ weight, Kidney [4]: 1.567 ± 0.165 g
Organ weight, Spleen [4]: 0.574 ± 0.056 g
Organ weight, Thymus [4]: 0.297 ± 0.056 g
Organ-to-body weight ratio, Brain [4]: 0.802 ± 0.031%
Organ-to-body weight ratio, Kidney [4]: 0.630 ± 0.037%
Organ-to-body weight ratio, Spleen [4]: 0.231 ± 0.016%
Organ-to-body weight ratio, Thymus [4]: 0.120 ± 0.023%
Organ-to-brain weight ratio, Adrenal gland [4]: 2.68 ± 0.38%
Organ-to-brain weight ratio, Kidney [4]: 78.65 ± 6.18%
Organ-to-brain weight ratio, Spleen [4]: 28.83 ± 2.34%
Organ-to-brain weight ratio, Thymus [4]: 14.89 ± 2.48%
Terminal BW [4]: 248.4 ± 12.5 g
Organ weight, Brain [5]: 1.958 ± 0.105 g
Organ weight, Kidney [5]: 1.549 ± 0.122 g
Organ weight, Spleen [5]: 0.616 ± 0.144 g
Organ weight, Thymus [5]: 0.339 ± 0.075 g
Organ-to-body weight ratio, Brain [5]: 0.943 ± 0.055%
Organ-to-body weight ratio, Kidney [5]: 0.746 ± 0.049%
Organ-to-body weight ratio, Spleen [5]: 0.294 ± 0.049%
Organ-to-body weight ratio, Thymus [5]: 0.162 ± 0.031%
Organ-to-brain weight ratio, Adrenal gland [5]: 2.88 ± 0.24%
Organ-to-brain weight ratio, Kidney [5]: 79.23 ± 6.43%
Organ-to-brain weight ratio, Spleen [5]: 31.37 ± 6.57%
Organ-to-brain weight ratio, Thymus [5]: 17.23 ± 3.33%
Terminal BW [5]: 208.0 ± 14.6 g
Organ weight, Brain [6]: 2.075 ± 0.093 g
Organ weight, Kidney [6]: 1.554 ± 0.133 g
Organ weight, Spleen [6]: 0.502 ± 0.064 g
Organ weight, Thymus [6]: 0.331 ± 0.135 g
Organ-to-body weight ratio, Brain [6]: 0.856 ± 0.093%
Organ-to-body weight ratio, Kidney [6]: 0.637 ± 0.024%
Organ-to-body weight ratio, Spleen [6]: 0.206 ± 0.027%
Organ-to-body weight ratio, Thymus [6]: 0.135 ± 0.047%
Organ-to-brain weight ratio, Adrenal gland [6]: 2.71 ± 0.42%
Organ-to-brain weight ratio, Kidney [6]: 75.09 ± 8.25%
Organ-to-brain weight ratio, Spleen [6]: 24.11 ± 2.01%
Organ-to-brain weight ratio, Thymus [6]: 16.14 ± 7.16%
Terminal BW [6]: 244.2 ± 24.2 g
Organ weight, Adrenal gland [7]: 0.052 ± 0.011 g
Organ weight, Brain [7]: 2.094 ± 0.050 g
Organ weight, Epididymis [7]: 0.977 ± 0.089 g
Organ weight, Heart [7]: 1.289 ± 0.102 g
Organ weight, Liver [7]: 8.125 ± 0.587 g
Organ weight, Spleen [7]: 0.741 ± 0.128 g
Organ weight, Thymus [7]: 0.477 ± 0.062 g
Organ-to-body weight ratio, Adrenal gland [7]: 0.016 ± 0.003%
Organ-to-body weight ratio, Brain [7]: 0.650 ± 0.035%
Organ-to-body weight ratio, Epididymis [7]: 0.303 ± 0.028%
Organ-to-body weight ratio, Heart [7]: 0.399 ± 0.028 %
Organ-to-body weight ratio, Liver [7]: 2.516 ± 0.108%
Organ-to-body weight ratio, Spleen [7]: 0.229 ± 0.030%
Organ-to-body weight ratio, Thymus [7]: 0.147 ± 0.016%
Organ-to-brain weight ratio, Adrenal gland [7]: 2.50 ± 0.58%
Organ-to-brain weight ratio, Epididymis [7]: 46.67 ± 4.12%
Organ-to-brain weight ratio, Heart [7]: 61.61 ± 5.76%
Organ-to-brain weight ratio, Liver [7]: 388.28 ± 30.51%
Organ-to-brain weight ratio, Spleen [7]: 35.42 ± 6.22%
Organ-to-brain weight ratio, Thymus [7]: 22.74 ± 2.77%
Terminal BW [7]: 322.9 ± 16.9 g
Organ weight, Adrenal gland [8]: 0.057 ± 0.008 g
Organ weight, Brain [8]: 2.262 ± 0.071 g
Organ weight, Epididymis [8]: 1.432 ± 0.140 g
